Converted amounts (≈) assume the structure as drawn.

Series [1] in a line: Partition (P) and distribution (D) coefficient, shake-flask octan-1-ol/water or PBS.
In series [2] the test system is Mtb H37Rv strain. Briefly: microbe, parasite or virus in culture. It is filed as cell-based. The following applies: for MIC50: concentration exhibiting 50% inhibition of mycobacterial growth; for MIC50 / MIC99: wild-type Mtb H37Rv, 96 h; for MIC99: concentration exhibiting 99% inhibition of mycobacterial growth.
Series [3] relates to HaCaT cells.
For series [4] the following is noted: for permeation compared to INH (4): PAMPA; for PAMPA log Pe: PBS pH 7.4, 18 h, RT, Pe in cm/s. In general terms: PAMPA measures passive passage across an artificial lipid membrane.
Series [5] concerns HaCaT cells. This is another data set of the same source.
Series [6] relates to HaCaT cells. The following applies: 24 h at MIC50 and MIC99 values for the Mtb strain.
The subject of series [7] is Mtb. More on the design: method as in PMID 28390957. Particulars: against Mtb; cited from earlier work.
Series [8] in a line: in vitro. Particulars: PAMPA, pH 7.4.
Series [9] can be described thus: Determination of the CC50 value (MTT assay). Particulars: human, HaCaT cells (immortalized keratinocytes).
[10] abbreviates: octan-1-ol/water, shake-flask, RT.

In the case of “N′-((1,7-dicarba-closo-dodecaboran-1-yl)propanoyl)isonicotinohydrazide [Compound 9]”, the log P (commonly the decadic logarithm of the partition coefficient of the neutral form, usually between octanol and water) in series [1] (setting [10]) is 1.11 ± 0.11. In [2], this compound showed an MIC50 of 22.40 µM and an MIC99 of 74.50 µM. In series [3], the midpoint of cytotoxicity, the CC50, lay at 290.6 ± 1.45 µM. Besides, in series [4], the “permeation compared to INH (4)” value is listed as “one order of magnitude higher” and the “PAMPA log Pe” value is −5.09 ± 0.07. For the same compound, the “cytotoxicity / cell viability (MTT)” value in [5] (24 h at MIC50 and MIC99 values for the ΔkatG strain) was “did not cause severe cytotoxicity”.
As to “N′-((1,12-dicarba-closo-dodecaboran-1-yl)methylidene)isonicotinohydrazide [Compound 15]”, the “log P” value in [1] (setting [10]) is listed as 2.28 ± 0.20. In series [2], this compound registered an MIC50 of 10.30 µM and an MIC99 of 17.20 µM. Moreover, in series [3], the cytotoxic concentration (CC50) (as a rule, the concentration that lowers cell viability or growth by half) was determined as 305 ± 6.11 µM. Moreover, in [4], the “permeation compared to INH (4)” value was “three orders of magnitude higher” and the “PAMPA log Pe” value is listed as −3.90 ± 0.17.
Take “N′-((1,12-dicarba-closo-dodecaboran-1-yl)ethyl)isonicotinohydrazide [Compound 25]”: the “log P” value in [1] (setting [10]) worked out at 1.15 ± 0.14. In series [2], this compound registered an MIC50 of 0.32 µM and an MIC99 of 6.50 µM. In addition, in series [4], the “permeation compared to INH (4)” value is “two orders of magnitude higher” and the “PAMPA log Pe” value is −4.37 ± 0.04.
Regarding “N′-((1,7-dicarba-closo-dodecaboran-1-yl)ethyl)isonicotinohydrazide [Compound 24]”, the “log P” value in series [1] (setting [10]) was determined as 0.66 ± 0.08. In series [2], this compound came in with an MIC50 of 0.81 µM and an MIC99 of 3.25 µM. For the same compound, in series [3], the midpoint of cytotoxicity, the CC50, lay at 105 ± 6.13 µM. Moreover, in series [4], the “permeation compared to INH (4)” value was “two orders of magnitude higher” and the “PAMPA log Pe” value is given as −4.85 ± 0.06.
In the case of “N′-((1,2-dicarba-closo-dodecaboran-1-yl)propanoyl)isonicotinohydrazide [Compound 8]”, in series [6], the apoptotic/necrotic cells is listed as 16.45%. Moreover, in [1] (setting [10]), the “log P” value amounted to 0.67 ± 0.07. In [2], this compound returned an MIC50 of 44.70 µM and an MIC99 of 100 µM. Moreover, the midpoint of cytotoxicity in series [3], the CC50, lay at 86.6 ± 3.63 µM. Besides, in series [4], the “permeation compared to INH (4)” value was “two orders of magnitude higher” and the “PAMPA log Pe” value is reported as −4.98 ± 0.12. Moreover, the “viable cells (MTT)” value in [5] (24 h at concentration consistent with MIC99 for wild-type Mtb) was determined as 50%.
Turning to “N′-((1,7-dicarba-closo-dodecaboran-1-yl)methylidene)isonicotinohydrazide [Compound 14]”, in series [1] (setting [10]), the “log P” value is 2.03 ± 0.09. In series [2], this compound came in with an MIC50 of 0.86 µM and an MIC99 of 3.40 µM. Further, in series [3], the CC50 was found to be 131 ± 3.46 µM. In series [4], the “permeation compared to INH (4)” value is recorded as “two orders of magnitude higher” and the “PAMPA log Pe” value was −4.06 ± 0.09.
As to “N′-((7,8-dicarba-nido-undecaboranyl)methylidene)isonicotinohydrazide [Compound 16]”, the “log D7.4” value in series [1] (octan-1-ol/PBS, shake-flask, RT) was determined as 0.67 ± 0.04. In addition, in series [2], the MIC50 stood at 0.16 µM and the MIC99 amounted to 0.33 µM. This compound gave a CC50 in [3] of 249.4 ± 0.56 µM. Besides, in [4], the “permeation compared to INH (4)” value was “one order of magnitude higher” and the “PAMPA log Pe” value was −5.05 ± 0.30.
Regarding “N′-((1,2-dicarba-closo-dodecaboran-1-yl)ethyl)isonicotinohydrazide [Compound 23]”, the “log P” value in [1] (setting [10]) amounted to 0.64 ± 0.09. In series [2], this compound yielded an MIC50 of 1.60 µM and an MIC99 of 4.90 µM. This compound also had a CC50 in series [3] of 86.5 ± 4.59 µM. Further, in [4], the “permeation compared to INH (4)” value is given as “two orders of magnitude higher” and the “PAMPA log Pe” value is given as −4.16 ± 0.05.
For the compound `NNC(=O)c1ccncc1` [4 (INH), pyridine-4-carbohydrazide, reference compound], the logP – broadly, a log measure of how a compound divides between an organic and an aqueous phase – at 0.5 h in series [1] (octan-1-ol/water) was -1 ± 0.09. In [2] (Mycobacterium tuberculosis), this compound returned an MIC50 of 0.073 µM (≈ 0.01 µg/mL) and an MIC99 of 0.36 µM (≈ 0.0494 µg/mL). Moreover, the MIC (as a rule, the least concentration at which growth counts as inhibited) in series [7] was 0.20 µg/mL (≈ 1.46 µM). Moreover, in series [8], the Papp (as a rule, a coefficient for how fast a substance crosses the barrier) at 18 h is 0.617 ×10⁻⁶ cm/s. Further, the 50% cytotoxic concentration (CC50) in series [9] is 725.8 ± 2.36 µM.
“N′-((1,12-dicarba-closo-dodecaboran-1-yl)propanoyl)isonicotinohydrazide [Compound 10]”: the “log P” value in series [1] (setting [10]) is 0.99 ± 0.07. For the same compound, in [2], the MIC50 came out at 29.80 µM and the MIC99 is given as 74.50 µM. The same compound gave a CC50 in series [3] of 161 ± 3.89 µM. Also, in series [4], the “permeation compared to INH (4)” value is “two orders of magnitude higher” and the “PAMPA log Pe” value is given as −4.65 ± 0.09.
In the case of “1,12-dicarba-closo-dodecaborane-1-carboxylic acid hydrazide [Compound 3]”, the “growth inhibition of Mtb” value in series [2] (at 75 µg/mL (0.37 mM)) is given as “not considerably inhibited”.
On to “N′-((1,2-dicarba-closo-dodecaboran-1-yl)ethylidene)isonicotinohydrazide [Compound 20]”, for which the “log P” value in series [1] (setting [10]) turned out to be 1.26 ± 0.22. Further, in [2], the MIC50 was determined as 0.082 µM and the MIC99 came out at 1.60 µM. In series [3], this compound showed a CC50 of 81.5 ± 7.23 µM. Also, in series [4], the “permeation compared to INH (4)” value is listed as “one order of magnitude higher” and the “PAMPA log Pe” value is reported as −5.05 ± 0.09.
For the compound “N′-((1,12-dicarba-closo-dodecaboran-1-yl)ethylidene)isonicotinohydrazide [Compound 22]”, the “log P” value in [1] (setting [10]) is reported as 1.30 ± 0.07. Also, in series [2], the MIC50 came to 0.16 µM and the MIC99 is 1.60 µM. Further, the cytotoxic concentration (CC50) in series [3] is 80.2 ± 3.81 µM. Also, in series [4], the “permeation compared to INH (4)” value is recorded as “two orders of magnitude higher” and the “PAMPA log Pe” value was −4.13 ± 0.07.
Regarding “N′-((1,7-dicarba-closo-dodecaboran-1-yl)ethylidene)isonicotinohydrazide [Compound 21]”, the “log P” value in series [1] (setting [10]) stood at 1.66 ± 0.18. In series [2], this compound registered an MIC50 of 0.16 µM and an MIC99 of 0.82 µM. Moreover, in series [3], the CC50 was determined as 78.23 ± 0.71 µM. Further, in series [4], the “permeation compared to INH (4)” value is “two orders of magnitude higher” and the “PAMPA log Pe” value is on record as −4.40 ± 0.10.
